Assays:
[1] = tested on: Mouse embryonic stem (ES) cells, TC1; experiment: Cardiomyogenesis modulating activity assay (alpha-MHC promoter EGFP, embryoid bodies, FACS/fluorescence microscopy); format: cell-based; conditions: for Cardiomyogenesis: fold change of EGFP expression level compared with DMSO control: embryoid bodies treated for 5 days, FACS
Summary of the method: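 Mouse TC1 ES cells carrying an alpha-MHC promoter-EGFP reporter were formed into embryoid bodies (~600 cells, 2 days hanging drop, 2 days suspension), plated, then exposed to compounds (final 0.05% DMSO) for 5 days. Cardiomyogenesis assessed by EGFP via FACS after trypsin dissociation, fluorescence microscopy, and daily counts of beating EBs.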

[2] = tested on: human bone marrow derived-mesenchymal stem cells (hBMMSC); experiment: Osteogenesis modulating activity with osteogenic induction cocktails (ALP activity, mineralization); format: cell-based; conditions: 20 μM, co-treated with osteogenic induction cocktails
Description: Cell culture: Human bone marrow derived-mesenchymal stem cells (hBMMSC) were isolated from normal subjects.
Osteogenesis modulating activity of test compounds with induction media: hBMMSC were culture with culture media containing osteogenic induction cocktails (OIC, 0.1 μM dexamethasone, 50 μM ascorbate-2-phosphate, 10 mM b-glycerophosphate). Four to five days after incubation, Alkaline phosphatase (ALP) activity of cell lysates were measured by colorimetry. For the determination of mineralization within the cells, Von Kossa staining or Alizarin Red S assay was performed 10-14 days after incubation.

[3] = tested on: human bone marrow derived-mesenchymal stem cells (hBMMSC); experiment: Osteogenesis modulating activity assay by test compound alone (ALP activity); format: cell-based
Summary of the method: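 hBMMSC from normal subjects were treated with compound at 20 μM final (0.01% DMSO) at 37° C, 5% CO2, with medium and compound renewed every two days. Alkaline phosphatase activity in cell lysates was measured colorimetrically after six to seven days.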

[4] = tested on: β-catenin/TCF transcription; experiment: TopFlash reporter gene assay in SW480 cells; format: cell-based; conditions: Homo sapiens; SW480 cells transfected with β-catenin/TCF luciferase construct; 24 hours treatment; dual luciferase assay; read-out: IC50, inhibition of β-catenin/TCF reporter gene construct
Description: FIG. 2. Compound A (Serial No. 111 in Table 2) inhibits β-catenin/TCF transcription. […] SW480 cells (10^5) were transfected with β-catenin/TCF luciferase construct. Cells were treated with Compound A (1-50 μM). 24 hours after the treatment lysates were prepared and subjected to dual luciferase assay.
FIG. 3. Compound B (Serial No. 10 in Table 2) inhibits β-catenin/TCF transcription. […] SW480 cells ([…]) were transfected with β-catenin/TCF luciferase construct. Cells were treated with Compound B (1-50 μM). 24 hours after treatment lysates were prepared and subjected to dual luciferase assay.
SW480 cells were transfected using Superfect™ transfection reagent (Qiagen, 301307). Cells were trypsinized briefly 1 day before transfection and plated on 6 well plate (5×10^5 cells/well) so that they were 50-80% confluent on the day of transfection.
Four microgram (TOPFlash) and one microgram (pRL-null) of DNAs were diluted in […] of serum-free medium, and 30 μl of Superfect™ transfection reagent was added. The DNA-Superfect mixture was incubated at room temperature for 15 min, and then, 1 ml of 10% FBS DMEM was added to this complex for an additional 3 hours of incubation. While complexes were forming, cells were washed with PBS twice without antibiotics.
The DNA-Superfect™ transfection reagent complexes were applied to the cells before incubating at 37° C. at 5% CO2 for 3 hours. […]

[5] = tested on: MyoD and Myf5 protein expression in C2C12 cells; experiment: Expression of MyoD and Myf5 (Western immunoblot) in C2C12 cells; format: cell-based, Murine; conditions: for expression of Myf5 compared with DMSO control, dose dependence: 5 and 10 μM; for Myf-5 expression on co-treatment with Wnt1 conditioned medium: co-treated with Wnt1
Description: (§1) a. Cell culture: Murine C2C12 myoblastic cell line (satellite cells from thigh muscle) purchased from American Tissue Type Collection (ATCC) was maintained in exponential phase of growth using 10% FBS/DMEM with Glutamax designed as GM (growth medium) supplied with antibiotic solution (Penicillin and Streptomycin) in a controlled humidified air atmosphere supplied with 5% CO2, at 37° C. in a multiwell or tissue culture Petri dishes (Corning-Costar Inc U.S.A.).
(§2) b. Induction of differentiation and test compound treatment: Every other day the cells were washed twice with phosphate buffered saline (PBS) and medium was changed until they reached 100% confluence. Confluent cells (myoblasts of the same cell density fully covering surface dish) were then guided to post mitotic status, and differentiation and fusion were initiated by replacing GM with 2% (v/v) horse serum HS/DMEM designed as DM (differentiating medium). In the above mentioned conditions C2C12 myoblasts easily and fully differentiate into myotubes, therefore we could follow up modifications of differentiation process during 5 subsequent days. During the study freshly prepared media without or with the experimental factors were changed every 24 hours. Test compounds were dissolved in DMSO and diluted with culture medium. Test compounds (if not specified, 10 μM was used, final DMSO 0.1% v/v) or DMSO (0.1% v/v) were added to the medium.
c. Expression of MyoD and Myf5: Cells were lysed and protein expression levels were analyzed by Western-immunoblot analysis, as described in the literature (Verma et al., British J Pharmacol, 2004, 143, 106-13). Equal amount of protein samples were resolved by sodium dodecyl sulphate poly-acrylamide gel electrophoresis (SDS-PAGE) and transferred to nitrocellulose membranes. The membranes were blocked with 5% bovine serum albumin (BSA) and incubated with the indicated primary antibodies for 12˜h: polyclonal C20 antion MyoD (from Santa-Cruz, Biotechnology, Santa Cruz, Calif.) diluted 1/400, polyclonal anti-Myf-5 directed against the COOH-terminal portion of the protein. After several washes in PBS, membranes were incubated with chemiluminescence reagents.

hBMMSC = experiment: Cell proliferation assay (CellTiter 96) in hBMMSC; format: cell-based, human; conditions: Homo sapiens, treated alone, read-out: cell proliferation inhibited
Description: Cell proliferation assay: To investigate the cytotoxicity of the test compounds for hBMMSC, hBMMSC were exposed to the test compounds for 6-7 days at the same condition above (method b and c). Cell proliferation was assessed using CellTiter 96 Aqueous One Solution (Promega, #G3581). Absorbance at 490 nm of each well was determined with a microplate reader (Molecular Device) and % growth inhibition was calculated compared with control.

C2C12 myoblasts = experiment: Myogenesis (myotube formation) in C2C12 myoblast cells; format: cell-based, Murine; conditions: C2C12 cells grown in GM
Description: as §1
as §2, with “Confluent cells (myoblasts of the same cell density fully covering surface dish) were then guided to post mitotic status, and differentiation and fusion were initiated by replacing GM with 2% (v/v) horse serum HS/DMEM designed as DM (differentiating medium).” left out

IC50 [4] [µM]	SMILES	expression of fluorescence, ratio Compound : DMSO control (control = 1) ([1]; 10 μM for 5 days, mouse embryonic stem cells)	Cardiomyogenesis: fold change of EGFP expression level compared with DMSO control [1] [fold]	ALP level reduced compared with vehicle control group [2] [%]	cellular alkaline phosphatase activity ([3]; 20 μM, hBMMSC)	ALP level reduced ([3]; 20 μM, treated alone to hBMMSC) [%]	fold induction at 20 µM ([3]; Homo sapiens, 168 h, hBMMSC, 20 μM test compound alone, six to seven days, read-out: Osteogenesis: fold change of ALP activity compared with DMSO control)	Myf-5 expression, compound without Wnt1 [5]	expression of Myf5 compared with DMSO control, dose dependence [5]	Myf-5 expression on co-treatment with Wnt1 conditioned medium [5]	Myf5 expression on co-treatment of CBP ([5]; co-treatment of CBP)	Myf5 expression on co-treatment of p300 ([5]; co-treatment of p300)	inhibition at 20 µM (hBMMSC) [%]	myotube formation in growth medium (GM) (C2C12 myoblasts)	Myf5 protein expression level [5]	MyoD protein expression level [5]
6.98	CN(C)c1c(Cl)cccc1CN1C[C@H]2N(C(=O)CN(C)N2C(=O)NCc2ccccc2)[C@@H](Cc2ccc(O)cc2)C1=O [#10]	0.26	0.26	80	strongly inhibited	77	0.23	reduced	dose-dependently decreased	abolished Myf-5 enhancing activity of Wnt1	not changed	rescues the decrease of Myf5 expression	51	–	–	–
–	O=C1[C@@H](Cc2ccc(O)cc2)N2C(=S)CCN(C(=O)NCc3ccccc3)[C@@H]2CN1Cc1cccc2ccccc12 [#112]	–	0.95	–	–	–	–	–	dose-dependently increased	further enhanced	–	–	–	extensive myotube formation	significantly increased	significantly increased

Reference: patent US20090215783A1, “COMPOSITION FOR INDUCTION OR INHIBITION OF STEM CELL DIFFERENTIATION” (CHOONGWAE PHARMA CORPORATION, priority 2006, published 2009)
